Source: PMC12186697, “HypoxyStat, a small-molecule form of hypoxia therapy that increases oxygen-hemoglobin affinity” (Cell, 2025)

Test system: 25+ potential off-targets
Experiment: Reaction Bio InVEST off-target panel
Settings: duplicate; significance = 50% or greater inhibition in both replicates
Description: This assay utilizes colorimetry to monitor the activity of acetylcholinesterase (AChE). Enzyme activity is measured by the conversion of acetylthiocholine to thiocholine, which is detected through an enhanced Ellman’s reaction. In each well, 20 μL of Assay Buffer (75.4 mM Na2HPO4, 24.6 mM NaH2PO4, pH 7.5) was added to wells designated as background/control (no enzyme). Subsequently, 20 μL of 0.2 U/mL AChE was added to the remaining wells. The reaction mixture was incubated at room temperature for 15 minutes on a shaker to allow for enzyme and drug interaction. To initiate the improved Ellman’s reaction, 30 μL of buffer containing 650 μM DTNB and 650 μM acetylthiocholine was added to each well. The color intensity, which is proportional to enzyme activity, was measured at 412 nm using an Envision 2105 plate reader.
The peroxidase activity is measured colorimetrically by monitoring the appearance of oxidized TMPD at 590 nm. […] Absorbance was then measured at 590 nm using an Envision 2105 plate reader (Revvity).
This assay uses fluorescence polarization to monitor binding to the hERG channel. […] Fluorescence polarization was measured at Ex/Em = 531 nm FP/595 nm P & S, and mP values were calculated.
The ADP-Glo™ assay is a luminescent method used to monitor ADP-producing biochemical reactions. […] Luminescence was then measured. […]

SMILES: O=Cc1ccccc1C(=O)N1CCCC[C@H]1COc1cccc(O)c1C=O [HypoxyStat]
- off-target inhibition or binding, InVEST panel: All tests were negative
